Measured values as given in US20090270450A1, “CHEMICAL COMPOUNDS” (ASTRAZENECA AB, priority 2006, published 2009).
pIC50: −log10 of the molar value. Where a name gives a salt, the structure may show the parent alone.

Key:
[1] = target: T1, His-tagged kinase domain of CSF-1R (amino acids 568-912) (Homo sapiens, UniProt P07333); assay: Assay 1: CSF-1R in vitro AlphaScreen assay; format: biochemical; conditions: phosphorylation of biotinylated pEY substrate; 0.57 nM CSF-1R, 90 μM ATP
T1 construct: The His-tagged kinase domain of CSF-1R (i.e., amino acids 568-912, GeneBank ID NM_005211); His; made in house; host or cells: baculovirus infected SF+Express insect cells
T1 sequence (P07333 568-912): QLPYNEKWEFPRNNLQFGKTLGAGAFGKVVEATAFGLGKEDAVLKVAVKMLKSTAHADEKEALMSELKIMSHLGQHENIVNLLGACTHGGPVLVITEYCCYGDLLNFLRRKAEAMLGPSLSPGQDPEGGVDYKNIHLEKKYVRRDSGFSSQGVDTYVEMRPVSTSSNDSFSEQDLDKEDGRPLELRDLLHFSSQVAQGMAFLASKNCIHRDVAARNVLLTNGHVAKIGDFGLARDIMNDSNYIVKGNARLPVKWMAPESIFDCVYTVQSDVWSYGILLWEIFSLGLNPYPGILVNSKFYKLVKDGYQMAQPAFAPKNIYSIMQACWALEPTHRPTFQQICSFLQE
Experimental: Assay 1: CSF-1R in Vitro AlphaScreen Assay
Activity of purified CSF-1R was determined in vitro using an Amplified Luminescent Proximity Homogeneous Assay (ALPHA)(Perkin Elmer), which measures phosphorylation of the CSF-1R substrate, biotinylated poly-glutamine-tyrosine peptide (PEY-HTRF CisBio 61GT0BLD), as described below. The His-tagged kinase domain of CSF-1R (i.e., amino acids 568-912, GeneBank ID NM_005211; (see page 25 lines 13-19 of WO 2006/067445 for the sequence listing)) was purified from baculovirus infected SF+Express insect cells (1.4×10^6 cells/ml), French pressed and chromatographed through subsequent Qiagen Ni-NTA, Superflow Mono Q HR 10/10, and Superdex 200 SEC columns. Typical yield was 245 μg/l of cell pellet at >95% purity.
The phosphorylation of the CSF-1R substrate in the presence and absence of the compound of interest was determined. Briefly, 0.57 nM of purified CSF-1R, 5 nM pEY substrate, and compound were preincubated in 1× buffer for 30 minutes at 25° C. Reactions were initiated with addition of 90 μM adenosine triphosphate (ATP) in 1× buffer and incubated at 25° C. for 60 minutes and reactions stopped by addition of 5 μl of detection mix consisting of 136 mM NaCl, 102 mM ethylenediamine tetraacetic acid, 1.65 mg/ml BSA, 40 ug/ml Streptavidin donor beads (Perkin Elmer 6760002), 40 ug/ml pTyr100 acceptor beads (Perkin Elmer 6760620). Plates were incubated at 25° C. for 18 hours in the dark. Phosphorylated substrate was detected by an EnVision plate reader (Perkin Elmer) 680 nm excitation, 520-620 nm emission. Data was graphed and IC50s calculated using Excel Fit (Microsoft).

[2] = target: T1, His-tagged kinase domain of CSF-1R (amino acids 568-912); assay: Assay 2: CSF1R in-vitro AlphaScreen assay; format: biochemical; conditions: phosphorylation of biotinylated pEY substrate; 0.46 nM CSF-1R, 12 mM ATP mix
Experimental: Assay 2: CSF1R in-Vitro AlphaScreen Assay
Activity of purified CSF-1R was determined in-vitro using an Amplified Luminescent Proximity Homogeneous Assay (ALPHA) (Perkin Elmer, Mass.), which measures phosphorylation of CSF-1R substrate, biotinylated poly-glutamine-tyrosine peptide (pEY-HTRF CisBio 61GT0BLD), as described below. The His-tagged kinase domain of CSF-1R (i.e., amino acids 568-912, GeneBank ID NM_005211) was purified from baculovirus infected SF+Express insect cells (1.4×10^6 cells/ml), French pressed and chromatographed through subsequent QIAgen Ni-NTA, Superflow Mono Q HR 10/10, and Superdex 200 SEC columns. Typical yield was 322 ug/l of cell pellet at >95% purity. The phosphorylation of the CSF-1R substrate in the presence and absence of the compound of interest was determined. Briefly, 5 ul of Enzyme/Substrate/adenosine triphosphate (ATP) mix consisting of 0.46 nM of purified CSF-1R, 12 nM pEY substrate, and 12 mM ATP in 1.2× buffer was preincubated with 2 ul of compound for 20 minutes at 25° C. Reactions were initiated with 5 ul of Metal mix consisting of 24 mM MgCl2 in 1.2× buffer and incubated at 25° C. for 90 minutes and reactions were stopped by addition of 5 ul of Detection mix consisting of 20 mM HEPES, 102 mM ethylenediamine tetraacetic acid, 1.65 mg/ml BSA, 136 mM NaCl, 40 ug/ml Streptavidin donor beads (Perkin Elmer, Mass., Catalog #6760002), and 40 ug/ml phosphotyrosine-specific antibody coated acceptor beads (Perkin Elmer, Mass., Catalog #6760620). Plates were incubated at 25° C. for 18 hours in the dark. Phosphorylated substrate was detected by an EnVision plate reader (Perkin Elmer) 680 nm excitation, 520-620 nm emission. Data was graphed and IC50s calculated using Excel Fit (Microsoft). […] For example the following results were obtained in an assay substantially similar to one or other of the assays described hereinabove: […]

SMILES | pIC50 [1] | pIC50 [2]
CCOc1cc2ncc(C(N)=O)c(Nc3ccc(F)cc3F)c2cc1C1=CCNCC1 [Example 39, 4-[(2,4-Difluorophenyl)amino]-7-ethoxy-6-(1,2,3,6-tetrahydropyridin-4-yl)quinoline-3-carboxamide] | > 8.52 | 
CCOc1cc2ncc(C(N)=O)c(Nc3ccc(F)cc3F)c2cc1C1CCNCC1 [Example 40, 4-[(2,4-Difluorophenyl)amino]-7-ethoxy-6-piperidin-4-ylquinoline-3-carboxamide] | 8.15 | 
CCOc1cc2ncc(C(N)=O)c(Nc3ccc(F)cc3F)c2cc1C1=CCN(C(C)=O)CC1 [Example 41, 6-(1-Acetyl-1,2,3,6-tetrahydropyridin-4-yl)-4-[(2,4-difluorophenyl)amino]-7-ethoxyquinoline-3-carboxamide] | 7.85 | 
CCOc1cc2ncc(C(N)=O)c(Nc3ccc(C)cc3F)c2cc1C1CCN(C)CC1 [Example 42, 7-Ethoxy-4-[(2-fluoro-4-methylphenyl)amino]-6-(1-methylpiperidin-4-yl)quinoline-3-carboxamide] | 8.30 | 
CCOc1cc2ncc(C(N)=O)c(Nc3ccc(F)cc3F)c2cc1C1CCN(C)CC1 [Example 43, 4-[(2,4-Difluorophenyl)amino]-7-ethoxy-6-(1-methylpiperidin-4-yl)quinoline-3-carboxamide] | > 8.41 | 
CCOc1cc2ncc(C(N)=O)c(Nc3cccc(Cl)c3F)c2cc1C1CCN(C)CC1 [Example 44, 4-[(3-Chloro-2-fluorophenyl)amino]-7-ethoxy-6-(1-methylpiperidin-4-yl)quinoline-3-carboxamide] | > 8.52 | 
CCOc1cc2ncc(C(N)=O)c(Nc3cccc(Cl)c3Cl)c2cc1C1CCN(C)CC1 [Example 45, 4-[(2,3-Dichlorophenyl)amino]-7-ethoxy-6-(1-methylpiperidin-4-yl)quinoline-3-carboxamide] | > 8.52 | 
CCOc1cc2ncc(C(N)=O)c(Nc3ccc(F)cc3F)c2cc1C1CCN(C(C)C)CC1 [Example 46, 4-[(2,4-Difluorophenyl)amino]-7-ethoxy-6-(1-isopropylpiperidin-4-yl)quinoline-3-carboxamide] | 7.74 | 7.66
CCOc1cc2ncc(C(N)=O)c(Nc3ccc(C)cc3F)c2cc1C1CCN(C(C)C)CC1 [Example 47, 7-Ethoxy-4-[(2-fluoro-4-methylphenyl)amino]-6-(1-isopropylpiperidin-4-yl)quinoline-3-carboxamide] | 8.40 | 
CCOc1cc2ncc(C(N)=O)c(Nc3cc(C)ccc3F)c2cc1C1CCN(C(C)C)CC1 [Example 48, 7-Ethoxy-4-[(2-fluoro-5-methylphenyl)amino]-6-(1-isopropylpiperidin-4-yl)quinoline-3-carboxamide] | 8.52 | 
COc1cc2ncc(C(N)=O)c(Nc3ccc(C)cc3F)c2cc1C1CCN(C)CC1 [Example 49, 4-[(2-Fluoro-4-methylphenyl)amino]-7-methoxy-6-(1-methylpiperidin-4-yl)quinoline-3-carboxamide] | 8.15 | 
COc1cc2ncc(C(N)=O)c(Nc3cccc(Cl)c3F)c2cc1C1CCN(C)CC1 [Example 50, 4-[(3-Chloro-2-fluorophenyl)amino]-7-methoxy-6-(1-methylpiperidin-4-yl)quinoline-3-carboxamide] | 8.22 | 
COc1cc2ncc(C(N)=O)c(Nc3ccc(F)cc3F)c2cc1C1CCN(C)CC1 [Example 51, 4-[(2,4-Difluorophenyl)amino]-7-methoxy-6-(1-methylpiperidin-4-yl)quinoline-3-carboxamide] | 8.00 | 
COc1cc2ncc(C(N)=O)c(Nc3ccc(C)cc3F)c2cc1C1CCN(C(C)C)CC1 [Example 52, 4-[(2-Fluoro-4-methylphenyl)amino]-6-(1-isopropylpiperidin-4-yl)-7-methoxyquinoline-3-carboxamide] |  | 7.85
COc1cc2ncc(C(N)=O)c(Nc3ccc(F)cc3F)c2cc1C1CCN(C(C)C)CC1 [Example 53, 4-[(2,4-Difluorophenyl)amino]-6-(1-isopropylpiperidin-4-yl)-7-methoxyquinoline-3-carboxamide] |  | 7.49
COc1cc2ncc(C(N)=O)c(Nc3cccc(Cl)c3F)c2cc1C1CCN(C(C)C)CC1 [Example 54, 4-[(3-Chloro-2-fluorophenyl)amino]-6-(1-isopropylpiperidin-4-yl)-7-methoxyquinoline-3-carboxamide] |  | 8.10
COc1cc2ncc(C(N)=O)c(Nc3ccc(F)cc3F)c2cc1C1CCN(C(C)=O)CC1 [Example 55, 6-(1-Acetylpiperidin-4-yl)-4-[(2,4-difluorophenyl)amino]-7-methoxyquinoline-3-carboxamide] | 7.82 | 
CCOc1cc2ncc(C(N)=O)c(Nc3ccc(C)cc3F)c2cc1C1CCN(C(C)=O)CC1 [Example 56, 6-(1-Acetylpiperidin-4-yl)-7-ethoxy-4-[(2-fluoro-4-methylphenyl)amino]quinoline-3-carboxamide] |  | 7.52
CCOc1cc2ncc(C(N)=O)c(Nc3ccc(C)cc3F)c2cc1C1CCN(C(=O)CCOC)CC1 [Example 57, 7-Ethoxy-4-[(2-fluoro-4-methylphenyl)amino]-6-[1-(3-methoxypropanoyl)piperidin-4-yl]quinoline-3-carboxamide] |  | 7.15
CCOc1cc2ncc(C(N)=O)c(Nc3ccc(C)cc3F)c2cc1C1CCN(C(=O)[C@@H](C)O)CC1 [Example 58, 7-Ethoxy-4-[(2-fluoro-4-methylphenyl)amino]-6-{1-[(2R)-2-hydroxypropanoyl]piperidin-4-yl}quinoline-3-carboxamide] |  | 7.28
CCOc1cc2ncc(C(N)=O)c(Nc3ccc(F)cc3F)c2cc1-c1ccc(=O)[nH]c1 [Example 59, 4-[(2,4-Difluorophenyl)amino]-7-ethoxy-6-(6-oxo-1,6-dihydropyridin-3-yl)quinoline-3-carboxamide] | 8.15 | 
COc1cc2ncc(C(N)=O)c(Nc3ccc(C)cc3F)c2cc1C1CCN(CCO)CC1 [Example 60, 4-[(2-Fluoro-4-methylphenyl)amino]-6-[1-(2-hydroxyethyl)piperidin-4-yl]-7-methoxyquinoline-3-carboxamide hydrochloride] |  | 8.40
